Data on 15 compounds can be found in ChEMBL document CHEMBL1128054, “The synthesis of pyrazolo[4,3-c]- and imidazo[4,5-c]-Aryl[e]fused pyridines as structural analogues of 4-aminonicotinoates” (Bioorg Med Chem Lett, 1995).

Where only a bound is given, the exact number is not on record here.

In this assay the target is GABA-A receptor; anion channel. Put plainly: Inhibition of [35S][…] (TBPS) binding to Gamma-aminobutyric acid receptor. Format: protein-complex assay.
As for `CCCOC(=O)c1c(C)nc2c(c1N)c1ccccc1n2C`, the IC50 is 2000 nM.

For `Cc1nc2sc3c(c2c2ncn(CCC4CC4)c12)CCC1(C3)OCCO1`, the IC50 was determined as 6300 nM.

`C#CCOC(=O)c1c(C)nc2sc3c(c2c1N)CCC1(C3)OCCO1` displayed an IC50 of 780 nM.

`Cc1nc2sc3c(c2c(N)c1C(=O)OCc1ccccc1)CCC1(C3)OCCO1` had an IC50 of 1400 nM.

Compound `Cc1nc2sc3c(c2c(N)c1C(=O)OCCC1CC1)CCC1(C3)OCCO1` displayed an IC50 of 240 nM.

In turn, `Cc1nc2sc3c(c2c2ncn(CC4CC4)c12)CCC1(C3)OCCO1` displayed an IC50 of 8900 nM.

As to `Cc1[nH]c2sc3c(c2c2ncnc1-2)CCC1(C3)OCCO1`, the half-inhibitory concentration (IC50) was over 100000 nM.

On to `CCOC(=O)c1c(C)nc2c(c1N)c1ccccc1n2C`, for which the IC50 amounted to 2000 nM.

The compound `COC(=O)c1c(C)nc2c(c1N)c1ccccc1n2C` had an IC50 of 2000 nM.

The compound `Cc1nc2sc3c(c2c2ncn(CCc4ccc(Cl)cc4)c12)CCC1(C3)OCCO1` displayed an IC50 of 2700 nM.

The compound `Cc1nc2sc3c(c2c2nn(Cc4ccccc4)c(O)c12)CCC1(C3)OCCO1` displayed an IC50 of over 100000 nM.

`Cc1nc2sc3c(c2c(N)c1C(=O)OCC1CC1)CCC1(C3)OCCO1` displayed an IC50 of 870 nM.

`Cc1nc2sc3c(c2c(N)c1C(=O)OCc1ccc(Cl)cc1)CCC1(C3)OCCO1` gave an IC50 of 310 nM.

Take `CCOC(=O)c1c(C)nc2sc3c(c2c1N)CCC1(C3)OCCO1`: the IC50 came out at 16400 nM.

Take `C#CCCOC(=O)c1c(C)nc2sc3c(c2c1N)CCC1(C3)OCCO1`: the IC50 was found to be 320 nM.

Broadly, the IC50 is the midpoint of a concentration-inhibition curve.
